From patent publication US9540389B2, “Antimicrobial potentiators” (priority 2013, dated 2017)

Columns and labels:
Assay in all cases: Time-kill assay (CIP and/or EPI)
Type in all cases: cell-based
E. aerogenes ATCC 13048 = details: Enterobacter aerogenes; 25 μM EPI + CIP 0.5 or 1×MIC
Description: (§1) Panel (C): Bactericidal activity of CIP alone, 25 μM MBX2319 alone, or 25 μM MBX2319 combined with a bacteriostatic concentration of CIP against E. coli AB1157 and isogenic efflux defective mutants after 2 hours exposure. […] Panel (D): Bactericidal activity of CIP alone, 25 μM MBX2319 alone, 25 μM PAβN alone, and a bacteriostatic concentration of CIP combined with 25 μM MBX2319 or combined with 25 μM PAβN against the following organisms: a) E. coli AB1157, b) E. coli ATCC 25922, c) K. pneumoniae ATCC 700603, d) S. flexneri ATCC 12022, e) S. enterica ATCC 14028, f) E. aerogenes ATCC 13048.
(§2) • Strains and Reagents. The following strains were obtained from the Keio collection (Baba, et al.: Construction of Escherichia coli K-12 in-frame, single-gene knockout mutants: the Keio collection. In Mol Syst Biol, vol. 2, pp. 2006 0008, (2006)): JW0451 (ΔacrB::kan), JW5503 (ΔtolC::kan), JW3234 (ΔacrF::kan), JW2661 (ΔemrB::kan), JW0863 (ΔmacB::kan). The deletion mutations in each of these strains were transferred to AB1157 using P1 phage transduction (see Table 1). […] The minimal inhibitory concentration (MIC) of antibacterial agents and biocides were determined using the microbroth dilution method essentially as described in the CLSI protocol M7-A7 (CLSI: Method for dilution antimicrobial susceptibility testing for bacteria that grow aerobically; Approved standard-document M7-A7. In Clinical and Laboratory Standards Institute document M7-A7, Clinical and Laboratory Standards Institute, Wayne, Pa., (2006)), with the following exceptions. […] MIC assays were performed in triplicate and the geometric mean was calculated. […] Viability was monitored over 2-4 hours by making serial dilutions in saline and spotting 5 μl of each dilution onto the surface of an LB agar plate in triplicate. Colonies were counted after the plates were incubated at 37° C. for 16-18 hr, colony forming units (CFU) per ml were calculated, and the average and standard deviation for the three replicates was determined. […]

[1] = tested on: K. pneumoniae ATCC 700603; details: Klebsiella pneumoniae; 25 μM EPI + CIP 0.5 or 1×MIC
Description: as §1, §2

S. enterica ATCC 14028 = details: Salmonella enterica; 25 μM EPI + CIP 0.5 or 1×MIC
Description: as §1, §2

Measured: decreased viability as compared to CIP alone

CC1(C)Cc2c(C#N)c(SCCc3ccccc3)nc(N3CCOCC3)c2CO1 [MBX2319]
100-1000 fold: all assays above
